Experimental data published in patent publication US8741843B2, “Compositions and methods for inducing angiogenesis” (priority 2006, dated 2014).
“Also recorded” adds a separate entry of the source.

Key:
[1] = test system: GRP78 receptor on endothelial cells; experiment: Competitive binding of ADOPeps to GRP78 (anti-GRP78 antibody ELISA on endothelial cells); design: species or system human; conditions: summary of 4 experiments
Experimental: FIG. 19 is a graph depicting inhibition of binding (in percentages) of anti-GRP78 antibody to endothelial cells by increasing concentrations of ADOPep1, 2, and 3 peptides. Endothelial cells were incubated for 2 hours with increasing concentrations of ADOPeps, following which the cells were incubated for another 1 hour with the 2 μg/ml of anti-GRP78 antibody and the amount of bound antibody on EC was detected using an ELISA reader.
Endothelial cells (20,000 per well) were seeded in 96 well plates for 24 hours in the presence of the complete medium. Plates were washed with PBS over night and rehydrated with PBS, 0.1% Na Azide and 5% FCS. ADOPep1, ADOPep2 and ADOPep3 were added to washed plates for 2 hours at room temperature at concentrations of 0.01, 0.1 and 1 microgram per ml. Anti-GRP78 antibody (goat polyclona IgG, Santa Cruz Biotechnology, Calif., USA) was added to the plates for 1 hour at room temperature at a concentration of 2 micrograms/ml per well. After washing, bound anti-GRP78 antibody was detected by incubation with anti-goat IgG Peroxidase conjugated (Jackson Immuneresearch Laboratories, PA, USA). After 5 washes with PBS-0.1% Tween 20, 100 μl/well of TMB+ Substrate-Chromogen (DAKOCytomation, CA, USA) was added for a maximum of 30 minutes. Reaction was stopped with 1N HCl. Color developed was determined by an ELISA reader at 450 nm.

[2] = test system: endothelial cells; experiment: Tube formation of endothelial cells on Cultrex Basement Membrane Extract; type: cell-based, human; conditions: 10 ng/ml, 18 hours, starvation and normoxic conditions
Experimental: FIG. 27 is a graph depicting induction of tube formation using AdoPep1 and Motif A (SEQ ID NO:7) but not the scrambled sROY peptide. Endothelial cells were incubated in media without supplements for 24 hours, and 50,000 cells were then transferred in 500 μl medium to 24-well plates precoated with 250 μl Cultrex Basement Membrane Extract (with reduced growth factors) (R&D Systems, Minneapolis, Minn., USA). AdoPep1, Motif A and scrambled sROY peptides were added at an optimal concentration of 10 ng/ml (based on preliminary findings), and the slides were examined by light microscopy after 18 hours incubation. The results represent average±SD of three experiments using 3 different cords. The length of the network of connected cells (tube formation) was measured in micrometers in 5 different areas of each well using Image-Pro Plus Image software (Media Cybernetics, Silver Spring, Md., USA).

[3] = test system: ERK½; experiment: ERK½ phosphorylation in endothelial cells under hypoxia (Western blot, densitometry); type: cell-based, human; conditions: for percent adjusted volume of pERK band: FIG. 31, cord 1, 10 ng/ml; for ERK½ phosphorylation (in words): endothelial cells under hypoxia; for ERK½ phosphorylation (in words) / incubation time of maximal ERK phosphorylation (densitometry, data not shown): 10 ng/ml; for incubation time of maximal ERK phosphorylation (densitometry, data not shown): hypoxia
Experimental: FIGS. 30a-b are Western blot analyses depicting induction of phosphorylation of ERK by ADoPep1 and Motif A. Endothelial cells under starvation conditions and 5 hours hypoxia were incubated for 5 (lanes 2 and 6), 20 (lanes 3 and 7), 30 (lanes 4 and 8) and 60 (lanes 5 and 9) minutes with 10 ng/ml ADoPep1 (Lanes 2-5) or Motif A (lanes 6-9) peptides or remained under hypoxia without a further incubation with a peptide (lane 1). After incubation, lysates were prepared, subject to SDS-PAGE and blotting on a nitrocellulose membrane. Western Blot analysis was performed using anti-Phospho ERK½ antibody. […] FIG. 30a—Experiment 1; FIG. 30b—Experiment 2. The percent adjusted volume as determined by a densitometric analysis software to compare net band densities was as follows: FIG. 30a, lane 1-4.5, lane 2-9.3, lane 3-13.7, lane 4-13.3, lane 5-11.2, lane 6-10.7, lane 7-12.4, lane 8-12.3 and lane 9-12.4; FIG. 30b, lane 1-4.21, lane 2-12.4, lane 3-12.5, lane 4-14.8, lane 5-10.9, lane 6-14.9, lane 7-9.8, lane 8-12.7 and lane 9-7.8.
FIG. 31 is a Western blot analysis depicting the level of phosphorylated ERK (pERK) in endothelial cells activated for 20 minutes with ADOPep1 and motif A and inhibited by pERK-inhibitor peptide. Endothelial cells (from cord 1) under starvation conditions and 5 hours hypoxia were incubated with 10 ng/ml ADOPep1 (lanes 3 and 4) or motif A (lanes 1 and 2) peptides in the presence (lanes 2 and 4) or absence (lanes 1 and 3) of p-ERK-inhibitor peptide (Santa Cruz). For control, the endothelial cells under starvation conditions and 5 hours hypoxia (lane 5) were also incubated with the p-ERK-inhibitor peptide (lane 6). […] The percent adjusted volume as determined by a densitometric analysis software to compare net band densities was as follows: lane 1-19, lane 2-14, lane 3-14, lane 4-8.8, lane 5-11, lane 6-2.1.
FIGS. 32a-b are Western blot analyses depicting the effect of ADOPeps on the level of phosphorylated ERK. Endothelial cells (EC) from cord 1 (FIG. 32a) or cord 2 (FIG. 32b) under hypoxia (5 hours) were incubated for 20 or 30 minutes with 10 ng/ml of AdoPep1, AdoPep2 and AdoPep3 or remained untreated (i.e., under hypoxia without any peptide). Western Blot analyses of samples cell lysates were performed with anti Phospho ERK antibody on nitrocellulose membranes. […] The percent adjusted volume as determined by a densitometric analysis software to compare net band densities was as follows: FIG. 32a, lane 1-11, lane 2-13, lane 3-11, lane 4-5, lane 5-11, lane 6-13, lane 7-17, lane 8-16.7; FIG. 32b, lane 1-17, lane 2-22, lane 3-19, lane 4-7, lane 5-8, lane 6-13, lane 7-14, lane 8-1.

[4] = test system: endothelial cells; experiment: Inhibition of binding of biotinylated ADOPep1 to endothelial cells by motif peptides; design: species or system human; conditions: normoxia, peptides 0.01, 0.1 or 1 ng/ml, ADOPep1^Biot 2 μg/ml
Experimental: FIG. 23 is a graph depicting the inhibition of binding of ADOPep1^Biot (2 μg/ml) to endothelial cells by specific peptides corresponding to conserved motifs from the ADOPeps. Endothelial cells were incubated for 2 hours under normoxia conditions in the presence of increasing concentrations (0.01, 0.1 or 1 ng/ml) of peptides having the amino acid sequences corresponding to Motif A (HWRRP; SEQ ID NO:7), Motif B (HWRRA; SEQ ID NO:8), Motif C (AHLLP; SEQ ID NO:6) or non-biotinylated ADOPep1 (SEQ ID NO:2) and then were incubated for 1 hour with biotinylated ADOPep1 (2 μg/ml) and the binding of biotinylated ADOPep1 to endothelial cells was determined using HRP-streptavidin.

[5] = FIG. 30a experiment 1, 10 ng/ml, 5 minutes, hypoxia alone 4.5
[6] = FIG. 30a experiment 1, 10 ng/ml, 20 minutes, hypoxia alone 4.5
[7] = FIG. 30a experiment 1, 10 ng/ml, 30 minutes, hypoxia alone 4.5
[8] = FIG. 30a experiment 1, 10 ng/ml, 60 minutes, hypoxia alone 4.5
[9] = FIG. 30b experiment 2, 10 ng/ml, 5 minutes, hypoxia alone 4.21
[10] = FIG. 30b experiment 2, 10 ng/ml, 20 minutes, hypoxia alone 4.21
[11] = FIG. 30b experiment 2, 10 ng/ml, 30 minutes, hypoxia alone 4.21
[12] = FIG. 30b experiment 2, 10 ng/ml, 60 minutes, hypoxia alone 4.21
[13] = 20 minutes, absence of p-ERK-inhibitor peptide, hypoxia alone 11
[14] = 20 minutes, presence of p-ERK-inhibitor peptide

With “HWRRAHLLPRLP [ADOPep1, ADAM15 derived peptide, amino acids 286-297 of the metalloprotease domain]” the “inhibition of binding of anti-GRP78 antibody to EC (in words)” value [1] was “some degree of inhibition”, the “tube formation (length of the network of connected cells)” value [2] was “significantly increased the length of the network of connected cells” and the “percent adjusted volume of phospho ERK½ band” value [3, 5] was 9.3%. For the same substance, the “percent adjusted volume of phospho ERK½ band” value [3, 6] was 13.7%, the “percent adjusted volume of phospho ERK½ band” value [3, 7] was 13.3% and the “percent adjusted volume of phospho ERK½ band” value [3, 8] was 11.2%. The “percent adjusted volume of phospho ERK½ band” value [3, 9] was 12.4%, the “percent adjusted volume of phospho ERK½ band” value [3, 10] was 12.5% and the “percent adjusted volume of phospho ERK½ band” value [3, 11] was 14.8%. For the same substance, the “percent adjusted volume of phospho ERK½ band” value [3, 12] was 10.9%, the “percent adjusted volume of pERK band” value [3, 13] was 14% and the “percent adjusted volume of pERK band” value [3, 14] was 8.8%. For the same substance, the “percent adjusted volume of phospho ERK band” value ([3]; FIG. 32a cord 1, 10 ng/ml, 20 minutes, untreated 11, 13) was 17%, the “percent adjusted volume of phospho ERK band” value ([3]; FIG. 32a cord 1, 10 ng/ml, 30 minutes, untreated 11, 13) was 16.7% and the “percent adjusted volume of phospho ERK band” value ([3]; FIG. 32b cord 2, 10 ng/ml, 20 minutes, untreated 17) was 22%. The “percent adjusted volume of phospho ERK band” value ([3]; FIG. 32b cord 2, 10 ng/ml, 30 minutes, untreated 8) was 13%, the “ERK½ phosphorylation (in words)” value [3] was “significant increase in ERK½ phosphorylation; also recorded: induced ERK½ phosphorylation” and the “ERK½ phosphorylation (in words)” value ([3]; listed as ADoPep1) was “induction of ERK½ phosphorylation”. For the same substance, the “incubation time of maximal ERK phosphorylation (densitometry, data not shown)” value [3] was 20 min.

In the case of “HWRRP [Motif A, 5 amino acid motif peptide]”, the “inhibition of the binding of ADOPep1^Biot to endothelial cells” value [4] was “significant inhibition”, the “tube formation (length of the network of connected cells)” value [2] was “significantly increased the length of the network of connected cells” and the “percent adjusted volume of phospho ERK½ band” value [3, 5] was 10.7%. For the same substance, the “percent adjusted volume of phospho ERK½ band” value [3, 6] was 12.4%, the “percent adjusted volume of phospho ERK½ band” value [3, 7] was 12.3% and the “percent adjusted volume of phospho ERK½ band” value [3, 8] was 12.4%. The “percent adjusted volume of phospho ERK½ band” value [3, 9] was 14.9%, the “percent adjusted volume of phospho ERK½ band” value [3, 10] was 9.8% and the “percent adjusted volume of phospho ERK½ band” value [3, 11] was 12.7%. The “percent adjusted volume of phospho ERK½ band” value [3, 12] was 7.8%, the “percent adjusted volume of pERK band” value [3, 13] was 19% and the “percent adjusted volume of pERK band” value [3, 14] was 14%. The “ERK½ phosphorylation (in words)” value [3] was “significant increase in ERK½ phosphorylation; also recorded: induction of ERK½ phosphorylation” and the “incubation time of maximal ERK phosphorylation (densitometry, data not shown)” value [3] was 20 to 60 min.
